The supplement of paper PMC10307832

Tests used:
Assay in all cases: relative viability (nuclei count vs DMSO), 5 days (fraction); higher = more cells survive
Erlotinib = compound: C#Cc1cccc(Nc2ncnc3cc(OCCOC)c(OCCOC)cc23)c1 [Erlotinib]
Procedure, shortened: (§1)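 Viability was read as treated-well nuclei divided by vehicle-well nuclei, using the median across plates. Lung cancer cell lines in 1536-well plates were kept overnight at 37 °C, pinned with five √10-spaced library-drug doses, and after 5 days were Hoechst-stained, imaged at 4× and counted in MetaXpress. Plates passed only with control CV below 25% and at least one doubling.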

Phenformin = compound: N=C(N)NC(=N)NCCc1ccccc1 [Phenformin] (anchor plate); conditions: 250 µM
Procedure, shortened: as §1

AT9283 = compound: O=C(Nc1c[nH]nc1-c1nc2ccc(CN3CCOCC3)cc2[nH]1)NC1CC1 [AT9283]
Procedure, shortened: as §1

Erlotinib + Trametinib = compound: C#Cc1cccc(Nc2ncnc3cc(OCCOC)c(OCCOC)cc23)c1 [Erlotinib] + CC(=O)Nc1cccc(-n2c(=O)n(C3CC3)c(=O)c3c(Nc4ccc(I)cc4F)n(C)c(=O)c(C)c32)c1 [Trametinib] (partner 0.02 µM)
Procedure, shortened: (§2)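 Lung cancer cell lines in 1536-well plates got either a single drug or a fixed anchor-drug dose together with five library-drug doses (not always all listed) in √10 steps, by pin tool, on the day after seeding. Nuclei were counted after 5 days, and relative viability is the treated-to-vehicle ratio of nuclei counts. Values are medians of duplicate plates.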

Erlotinib + Bortezomib = compound: C#Cc1cccc(Nc2ncnc3cc(OCCOC)c(OCCOC)cc23)c1 [Erlotinib] + CC(C)C[C@H](NC(=O)[C@H](Cc1ccccc1)NC(=O)c1cnccn1)B(O)O [Bortezomib] (partner 0.002 µM)
Procedure, shortened: as §2

Erlotinib + Crizotinib = compound: C#Cc1cccc(Nc2ncnc3cc(OCCOC)c(OCCOC)cc23)c1 [Erlotinib] + C[C@@H](Oc1cc(-c2cnn(C3CCNCC3)c2)cnc1N)c1c(Cl)ccc(F)c1Cl [Crizotinib] (partner 1 µM)
Procedure, shortened: as §2

Cell Line: NCI-H441
- relative viability (Erlotinib; 0.2 µM): 1.1
- relative viability (Erlotinib; 0.6325 µM): 1.05
- relative viability (Erlotinib; 2 µM): 0.848
- relative viability (Phenformin): 0.87
- relative viability (AT9283; 0.003 µM): 1.09
- relative viability (AT9283; 0.03 µM): 0.856
- relative viability (AT9283; 0.09487 µM): 0.37
- relative viability (AT9283; 0.3 µM): 0.337
- relative viability (Erlotinib + Trametinib; first compound 0.02 µM): 0.457
- relative viability (Erlotinib + Trametinib; first compound 0.6325 µM): 0.442
- relative viability (Erlotinib + Trametinib; first compound 2 µM): 0.328
- relative viability (Erlotinib + Bortezomib; first compound 0.02 µM): 0.724
- relative viability (Erlotinib + Bortezomib; first compound 0.2 µM): 0.471
- relative viability (Erlotinib + Bortezomib; first compound 0.6325 µM): 0.383
- relative viability (Erlotinib + Bortezomib; first compound 2 µM): 0.219
- relative viability (Erlotinib + Crizotinib; first compound 0.02 µM): 0.831
- relative viability (Erlotinib + Crizotinib; first compound 0.2 µM): 0.751
- relative viability (Erlotinib + Crizotinib; first compound 0.6325 µM): 0.772
- relative viability (Erlotinib + Crizotinib; first compound 2 µM): 0.677
